Patent US20100298141A1, “SUBSTITUTED PYRIDINE N-OXIDE HERBICIDES” (E. I. DU PONT DE NEMOURS AND COMPANY, priority 2007, published 2010)

What was measured:
large crabgrass = assay: Test G preemergence test; type: in vivo, Digitaria sanguinalis; settings: scale 0 to 100
fall panicum = assay: Test G preemergence test; type: in vivo, Panicum dichotomiflorum; settings: scale 0 to 100
soybean = assay: Test G preemergence test; type: in vivo, Glycine max; settings: scale 0 to 100
barnyardgrass = assay: Test B flooded paddy test; type: in vivo, Echinochloa crus-galli; settings: Flood, 250 g ai/ha, 13 to 15 days; scale 0 to 100, 0 no effect, 100 complete control
Source text: (§1) At time of treatment, test pots were flooded to 3 cm above the soil surface, treated by application of test compounds directly to the paddy water, and then maintained at that water depth for the duration of the test. Treated plants and controls were maintained in a greenhouse for 13 to 15 days, after which time all species were compared to controls and visually evaluated. […] A dash (-) response means no test result.

Redstem = assay: Test C flooded paddy test; type: in vivo; settings: Flood
Source text: as §1

Ricefield Bulrush = assay: Test C flooded paddy test; type: in vivo; settings: Flood
Source text: as §1

winter barley = assay: Test D preemergence test; type: in vivo, Hordeum vulgare
Source text: Seeds of plant species selected from annual bluegrass (Poa annua), blackgrass (Alopecurus myosuroides), downy bromegrass (Bromus tectorum), field violet (Viola arvensis), green foxtail (Setaria viridis), Italian ryegrass (Lolium multiflorum), littleseed canarygrass (Phalaris minor), spring wheat (Triticum aestivum), wild oat (Avena fatua), […]), winter barley (Hordeum vulgare), and winter wheat (Triticum aestivum) were planted and treated preemergence with test chemicals formulated in a non-phytotoxic solvent mixture which included a surfactant. […] A dash (-) response means no test result.

lambsquarters = assay: Test G preemergence test; type: in vivo, Chenopodium album; settings: scale 0 to 100
[1] = 31 g ai/ha, scale 0 to 100 (0 no effect, 100 complete control)
[2] = 62 g ai/ha, scale 0 to 100, 0 no effect, 100 complete control, 13 to 15 days
[3] = 125 g ai/ha, scale 0 to 100, 0 no effect, 100 complete control, 13 to 15 days
[4] = 250 g ai/ha, scale 0 to 100 (0 no effect, 100 complete control)
[5] = Preemergence, 62 g ai/ha, scale 0 to 100
[6] = Preemergence, 125 g ai/ha, scale 0 to 100
[7] = Preemergence, 31 g ai/ha, scale 0 to 100
[8] = preemergence, 250 g ai/ha, scale 0 (no effect) to 100 (complete control)

Row | SMILES | Plant response rating, Crabgrass, Large (large crabgrass; 31 g ai/ha) | Plant response rating, Crabgrass, Large (large crabgrass; 62 g ai/ha) | Plant response rating, Crabgrass, Large (large crabgrass; 125 g ai/ha) | Plant response rating, Crabgrass, Large (large crabgrass; 250 g ai/ha) | Plant response rating, Fall Panicum (fall panicum; 31 g ai/ha) | Plant response rating, Fall Panicum (fall panicum; 62 g ai/ha) | Plant response rating, Fall Panicum (fall panicum; 125 g ai/ha) | Plant response rating, Fall Panicum (fall panicum; 250 g ai/ha) | Plant response rating, Soybean (soybean; 31 g ai/ha) | Plant response rating, Soybean (soybean; 62 g ai/ha) | Plant response rating, Soybean (soybean; 125 g ai/ha) | Plant response rating, Soybean (soybean; 250 g ai/ha) | Plant response rating, Barnyardgrass (barnyardgrass) | Plant response rating, Redstem (Redstem; [1]) | Plant response rating, Redstem (Redstem; [2]) | Plant response rating, Redstem (Redstem; [3]) | Plant response rating, Redstem (Redstem; [4]) | Plant response rating, Ricefield Bulrush (Ricefield Bulrush; [1]) | Plant response rating, Ricefield Bulrush (Ricefield Bulrush; [2]) | Plant response rating, Ricefield Bulrush (Ricefield Bulrush; [3]) | other results
1 | Cc1cc[n+]([O-])c([S+]([O-])Cc2c(C(F)(F)F)nn(C)c2OC(F)F)c1 (stereo not shown) [Compound 1] | 10 | 100 | 100 | 100 | 0 | 10 | 30 | 100 | 0 | 20 | 20 | 25 | 80 | 40 | 60 | 80 | 85 | 75 | 75 | 75 | Plant response rating, Ricefield Bulrush (Ricefield Bulrush; [4]): 85; Plant response rating, Barley (winter barley; [5]): 0; Plant response rating, Barley (winter barley; [6]): 40; Plant response rating, Barley (winter barley; [7]): 0; Plant response rating, Barley (winter barley; [8]): 50; Plant response rating, Lambsquarters (lambsquarters; 31 g ai/ha): 0; Plant response rating, Lambsquarters (lambsquarters; 62 g ai/ha): 100; Plant response rating, Lambsquarters (lambsquarters; 125 g ai/ha): 100; Plant response rating, Lambsquarters (lambsquarters; 250 g ai/ha): 100
2 | Cn1nc(C(F)(F)F)c(CS(=O)(=O)c2cccc[n+]2[O-])c1OC(F)F [Compound 4] | 85 | 80 | 95 | 100 | 20 | 20 | 60 | 100 | 0 | 10 | 15 | 15 | 80 | 40 | 55 | 85 | 80 | 0 | 0 | 60 | Plant response rating, Ricefield Bulrush (Ricefield Bulrush; [4]): 80; Plant response rating, Barley (winter barley; [5]): 30; Plant response rating, Barley (winter barley; [6]): 30; Plant response rating, Barley (winter barley; [7]): 30; Plant response rating, Barley (winter barley; [8]): 35; Plant response rating, Lambsquarters (lambsquarters; 31 g ai/ha): 0; Plant response rating, Lambsquarters (lambsquarters; 62 g ai/ha): 10; Plant response rating, Lambsquarters (lambsquarters; 125 g ai/ha): 10; Plant response rating, Lambsquarters (lambsquarters; 250 g ai/ha): 10
